System: 873145-292-R-J1-PDC complex spheroid viability
Experiment: Anticancer human tumor 873145-292-R-J1-PDC patient-derived renal clear cell carcinoma cell line growth inhibition [POLQ]
Settings: for IC50: curve of first compound; for viability, T/C: stronger effect = lower value; active = viability on the fitted dose curve at most 10% of control; inactive = the rest
Procedure, shortened: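 PDC + HUVEC + MSC complex spheroids; POLQ inhibitors ± partner drugs; top conc. at/near clinical Cmax, else 10 microM (SN-38 1 microM), half-log dilutions; 37 degrees C, 5% CO2.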
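Also: spheroids exposed to compounds for 7 days before viability readout.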
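For viability, T/C in this document: luminescence signal used as surrogate for viable cell content; 100% = DMSO vehicle control viability.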

CC1COCCN1c1cc(C2(S(C)(=N)=O)CC2)nc(-c2ccnc3[nH]ccc23)n1 (configuration not stated) + Nc1ccc(C#CCN(C(=O)Cc2ncc(C(F)(F)F)cc2C(F)(F)F)c2ccc(F)cc2)nn1
inactive: viability, T/C (second compound 0.0316 µM, first compound 0.0316 µM) 103% | viability, T/C (second compound 0.0316 µM, first compound 0.1 µM) 99.2% | viability, T/C (second compound 0.0316 µM, first compound 0.316 µM) 102% | viability, T/C (second compound 0.0316 µM, first compound 1 µM) 80.5% | viability, T/C (second compound 0.0316 µM, first compound 3.16 µM) 73.9% | viability, T/C (second compound 0.0316 µM, first compound 10 µM) 71% | viability, T/C (second compound 0.1 µM, first compound 0.0316 µM) 107% | viability, T/C (second compound 0.1 µM, first compound 0.1 µM) 98.4% | viability, T/C (second compound 0.1 µM, first compound 0.316 µM) 82% | viability, T/C (second compound 0.1 µM, first compound 1 µM) 83.3% | viability, T/C (second compound 0.1 µM, first compound 3.16 µM) 88.9% | viability, T/C (second compound 0.1 µM, first compound 10 µM) 67.8% | viability, T/C (second compound 0.316 µM, first compound 0.0316 µM) 102% | viability, T/C (second compound 0.316 µM, first compound 0.1 µM) 92.8% | viability, T/C (second compound 0.316 µM, first compound 0.316 µM) 84.7% | viability, T/C (second compound 0.316 µM, first compound 1 µM) 92.3% | viability, T/C (second compound 0.316 µM, first compound 3.16 µM) 78.2% | viability, T/C (second compound 0.316 µM, first compound 10 µM) 69.6% | viability, T/C (second compound 1 µM, first compound 0.0316 µM) 90.7% | viability, T/C (second compound 1 µM, first compound 0.1 µM) 90% | viability, T/C (second compound 1 µM, first compound 0.316 µM) 90.8% | viability, T/C (second compound 1 µM, first compound 1 µM) 88.5% | viability, T/C (second compound 1 µM, first compound 3.16 µM) 80.2% | viability, T/C (second compound 1 µM, first compound 10 µM) 64.4% | viability, T/C (second compound 3.16 µM, first compound 0.0316 µM) 92.2% | viability, T/C (second compound 3.16 µM, first compound 0.1 µM) 97.1% | viability, T/C (second compound 3.16 µM, first compound 0.316 µM) 101% | viability, T/C (second compound 3.16 µM, first compound 1 µM) 82.8% | viability, T/C (second compound 3.16 µM, first compound 3.16 µM) 82% | viability, T/C (second compound 3.16 µM, first compound 10 µM) 73.2% | viability, T/C (second compound 10 µM, first compound 0.0316 µM) 105% | viability, T/C (second compound 10 µM, first compound 0.1 µM) 106% | viability, T/C (second compound 10 µM, first compound 0.316 µM) 103% | viability, T/C (second compound 10 µM, first compound 1 µM) 110% | viability, T/C (second compound 10 µM, first compound 3.16 µM) 85.5% | viability, T/C (second compound 10 µM, first compound 10 µM) 81.3%
> 10 µM: IC50 (second compound 0.0316 µM) | IC50 (second compound 0.1 µM) | IC50 (second compound 0.316 µM) | IC50 (second compound 1 µM) | IC50 (second compound 3.16 µM) | IC50 (second compound 10 µM)
